For data set [1], the target named is T1, native EpCAM expressed on the cell surface (Homo sapiens, UniProt P16422).
T1 construct: host or cells: T47D, MCF7, MDA-MB-231, HT-29 (EpCAM-positive); U118MG (EpCAM-negative control)
T1 sequence (P16422 24-314): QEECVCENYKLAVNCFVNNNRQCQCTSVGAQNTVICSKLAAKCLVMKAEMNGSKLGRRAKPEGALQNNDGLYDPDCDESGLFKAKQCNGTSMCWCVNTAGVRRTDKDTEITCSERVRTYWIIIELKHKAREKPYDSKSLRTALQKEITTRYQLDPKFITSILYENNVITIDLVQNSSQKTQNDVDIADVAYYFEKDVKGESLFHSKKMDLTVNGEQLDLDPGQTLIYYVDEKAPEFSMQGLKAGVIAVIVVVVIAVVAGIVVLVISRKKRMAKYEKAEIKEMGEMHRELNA
The experiment in a line: Binding affinities of EpCAM aptamers by flow cytometry. To be noted: read-out: KD (±SEM). How it is done:
(§1) Cells were harvested at 80% confluence with trypsin digestion and resuspended in washing buffer (DPBS with 5 mM MgCl2) and enumerated. Following centrifugation (1000×g for 5 min), the cell pellet was resuspended in assay buffer (DPBS supplemented with 5 mM MgCl2, 0.1 mg/ml tRNA, 0.1 mg/ml salmon sperm DNA, 0.2% [w/v] sodium azide, and 5% FCS) and diluted to 1×10^6/mL. The blocking step was carried out at 4′C. The binding of the aptamers was carried out at 37′C for 30 min or 4′C for 1 h, with the final concentration of magnesium chloride being 2.5 mM in all binding assays.
(§2) The equilibrium dissociation constant (K′d) of successful 2′-fluoropyrimidine RNA aptamer species to native EpCAM expressed on the cell surface was determined using flow cytometry with EpCAM-positive and -negative cell lines and a negative control (2-O-methyl-pyrimidine) aptamer (5′-DY647-mGCmGACUmGmGUUmACCCmGmGUCmGdT-3′) (SEQ ID NO:13). Kato III or U118MG cells (5×10^5) were first incubated with assay buffer followed by two washes with binding buffer prior to incubation with serial concentrations (approximately 10-fold above and below the apparent K′d) of FITC-labelled aptamer in a 100 μL assay buffer for 1 h on ice. The cells were washed three times, resuspended in 150 μL assay buffer containing 2.5 mM MgCl2 and subjected to flow cytometric analyses. The FITC-labelled unselected library was used as another negative control. The mean fluorescence intensity (MFI) of the unselected library was subtracted from that of the aptamer-target cell to generate the MFI of specific binding. The K′d for each aptamer was determined by Scatchard analysis according to the equation: [Bound aptamer]/[aptamer]=−(1/KD)×[bound aptamer]+([T]tol/KD) where [T]tot represents the total target concentration. Design and Generation of EpCAM Aptamer-siRNA Chimera
(§3) The binding affinities of both aptamers have been characterised against all five cell lines used in this study by flow cytometry, and the results are shown in Table 1.
(In general: A flow cytometer gives signals particle by particle.)

The subject of data set [2] is native EpCAM expressed on the cell surface. Described as above. Details: species or system human. To be noted: U118MG cells (EpCAM negative); read-out: KD (±SEM). The method, then:
as §1, §2, §3

In the next data set the test system is HT-29 tumor sphere. The experiment in a line: Penetration and retention in HT-29 tumor sphere (confocal microscopy). To be noted: for penetration into tumor sphere: 100 nM, 0.5-4 h incubation, sphere ~300-400 μm; for fluorescence signal retained in tumor sphere: 4 h incubation, wash, further 24 h in culture medium. Type of data set: cell-based, human. How it is done: HT-29 or HEK293T cells were cultured in stem cell culture medium (DMEM/F12 with 20 ng/ml EGF and FGF and B27). […] After incubating for 0.5, 1, 2 or 4 h, the spheres were washed twice with PBS and imaged via fluorescence confocal microscopy. A phase contrast image of the sphere was also taken for each sample. Panel A fluorescence image for antibody EpCAM, Panel B phase contrast image for tumor sphere. Panel C: fluorescence image for aptamer EpCAM 23, Panel D: phase contrast image for tumor sphere. Panel E: fluorescence image aptamer control, Panel F: phase contrast image for tumor sphere.
Tumour spheres were incubated with EpCAM antibody, aptamer-23 or control aptamer for 4 h. After washing with PBS twice, the tumor spheres were incubated with the culture medium for a further 24 h followed by confocal microscopy. Panel A: fluorescence image for antibody or aptamer. Panel B: phase contrast image for tumour sphere.
To study the ability of EpCAM aptamer or antibody to penetrate tumors, the inventors used a three-dimensional in vitro tumor sphere model. […] After incubating for the indicated time, the spheres were washed twice with PBS and imaged via fluorescence confocal microscopy. A phase contrast image of the sphere was also taken for each sample. […] A retention study was performed whereby the tumour spheres were incubated with EpCAM antibody, aptamer-23 or control aptamer for 4 h, after washing with PBS twice, the tumor spheres were incubated with the culture medium for a further 24 h followed by confocal microscopy.

Like-named read-outs stand apart in the source and are kept apart here. Bounds are passed on as bounds.

One may read the Kd as a measure of binding affinity in units of concentration. Take “5′-ACGUAUCCCUUUUCGCGUA-3′ (RNA aptamer, fluorescent dye conjugate used, modifications not given here, further chemistry not given here) [compound 23]”: the Kd in data set [1] (HT29 cells) was 37 ± 23.6 nM; in data set [1] (MCF7 cells), 63.7 ± 40.4 nM; in data set [1] (MDA-MB-231 cells), 86.7 ± 68.5 nM; in data set [1] (T47D cells), 41.2 ± 29.2 nM; in data set [2] it was > 1000 nM. Besides, the “penetration into tumor sphere” value in the data set on HT-29 tumor sphere is reported as “could penetrate into the core or center of the tumor sphere”. Moreover, the “fluorescence signal retained in tumor sphere” value in the data set on HT-29 tumor sphere was “clearly detectable signal”. Besides, the “retention by the tumor cells” value in the data set on HT-29 tumor sphere (after 4 h incubation and wash) is “at least 24 hours”.

Consider “5′-DY647-mGCmGACUmGmGUUmACCCmGmGUCmGdT-3′ (GCGACUGGUUACCCGGUCGN; 5' DY647, 2'-O-methyl, 3' dT, further chemistry not given here) [Control]”, for which the Kd was 837 ± 265 nM in data set [1] (HT29 cells); > 1000 nM in data set [1] (MCF7 cells); > 1000 nM in data set [1] (MDA-MB-231 cells); > 1000 nM in data set [1] (T47D cells); > 1000 nM in data set [2]. Further, the “penetration into tumor sphere” value with HT-29 tumor sphere is “only limited non-specific binding”. Besides, the “fluorescence signal retained in tumor sphere” value in the data set on HT-29 tumor sphere is given as “very weak signal”.

The values above are taken from patent US9567586B2, “EpCAM aptamer for detection of cancer stem cells” (DEAKIN UNIVERSITY, priority 2012, dated 2017).
